From patent publication US9658212B2, “Process for evaluating active agent(s) capable of preserving the functionality of epithelial stem cells” (L'OREAL, priority 2012, dated 2017)
“Also recorded” adds a separate entry of the source.

Columns and labels:
[1] = tested on: gene encoding carbonic anhydrase IX; experiment: Transcriptomic analysis (RT-qPCR) of the carbonic anhydrase IX gene in hair bulbs cultured ex vivo; type: cell-based, human; settings: whole hair bulbs, 4 hours incubation, normoxic conditions (21% dioxygen), compared with hypoxic conditions (3% dioxygen)
Description: A second evaluation process may consist in carrying out a transcriptomic analysis of carbonic anhydrase IX, of which the expression of the corresponding gene is modified by a hypoxic signal, using the RT-qPCR technique, on keratin materials, for example on in vitro cultures of keratinocytes or hair bulbs isolated by microdissection and placed in culture ex vivo, under hypoxic conditions, and under normoxic conditions in the presence or absence of said active agent(s) to be tested, in order to study whether the active agent(s) is (are) capable of mimicking a hypoxic state.
This second process consists in carrying out a transcriptomic analysis of the gene encoding carbonic anhydrase IX, the expression of which is modified by a hypoxic signal, using the RT-qPCR technique, on hair bulbs isolated by microdissection at the level of the human scalp hypodermis and placed in culture ex vivo for 4 hours either under hypoxic conditions (3% dioxygen) or at 21% dioxygen, in the absence (control) or in the presence of diethyl pyridine-2,4 dicarboxylate.

[2] = tested on: keratinocytes from the outer sheath of human hair follicles; experiment: CFE (Colony-forming efficiency) test for keratinocytes (including epithelial stem cells); type: cell-based; settings: 21% dioxygen, 50 to 500 μM, 10 days culture
Description: It is possible to optionally add to these two evaluation processes a process aimed at establishing the impact of the active agent(s) capable of mimicking hypoxia on the quality of the epithelial stem cells. To do this, a CFE (Colony-forming efficiency) test can be carried out for keratinocytes (including epithelial stem cells), consisting in observing, respectively, under hypoxic conditions and under normoxic conditions in the presence or absence of active agent(s), the impact of the presence of the active agent(s) on the frequency of the cells capable of generating a cell clone within a given population, and also on the clonal morphology obtained, so as to thus establish their participation in the preservation of the functionality of the epithelial stem cells treated with the active agent(s). […]
Next, the cells of the outer epithelial sheath thus extracted from the hair follicles and dissected are subsequently seeded in a proportion of 1000 cells/culture dish under CFE conditions, on a layer of irradiated 3T3 fibroblasts. […] At the end of the clonogenic culture and after fixing (via 70% ethanol) and staining (incubation with eosin, rinsing and then incubation with BlueRAL 555) of the cell clones obtained, the morphology of the clones and of the cells making up these clones is analyzed.

HIF1-alpha protein = experiment: Western blotting of the level of expression/stabilization of the HIF1-alpha protein in outer sheath keratinocytes; type: cell-based, human; settings: keratinocyte cultures under normoxic conditions (21% oxygen)
Description: This third example consists in carrying out an analysis of the level of expression/stabilization of the HIF1-alpha protein using the Western blotting technique as a basis. To summarise, under normoxic conditions, the HIF1-alpha protein is hydroxylated on a proline residue (reaction catalyzed by a prolyl hydroxylase), ubiquitinylated and then degraded by the proteasome. Under hypoxic conditions, the HIF1-alpha protein is not hydroxylated and its expression level is maintained. To characterize the effect of diethyl pyridine-2,4-dicarboxylate on the level of expression/stabilization of HIF1-alpha, a protein extract was prepared on cultures of keratinocytes derived from the outer sheath of human hair follicles maintained and placed in culture under hypoxic conditions or under normoxic conditions, in the absence or presence of diethyl pyridine-2,4-dicarboxylate. […] In this regard, it may be stated that the effect of diethyl pyridine-2,4-dicarboxylate under normoxic conditions mimics the effect of hypoxic conditions on the expression/stabilization of the HIF1-alpha protein.

## CCOC(=O)c1ccnc(C(=O)OCC)c1 [diethyl pyridine-2,4-dicarboxylate]
[1]
  expression of carbonic anhydrase 9 (molecular profile): induces a molecular profile similar to that induced by hypoxia
[2]; vs 21% dioxygen control conditions
  number of clones: does not significantly decrease
[2]; vs untreated 21% dioxygen control
  clonal morphology: less diffuse and less dense than the controls; also recorded: generates clones similar to those obtained under hypoxic conditions
HIF1-alpha protein
  level of expression/stabilization of the HIF1-alpha protein: induces an increase in the amount of protein detected
